Measurements reported in article PMC3475717, “A Spiroligomer α-Helix Mimic That Binds HDM2, Penetrates Human Cells and Stabilizes HDM2 in Cell Culture” (PLoS ONE, 2012).
“Also recorded” adds a separate entry of the source.

Experiments:
[1] = system: HDM2, p53Y220C and p21 in Huh7 cells; test: Western blot analysis of HDM2, p53 and p21; assay type: cell-based, human
Procedure: Huh7 cells were incubated with spiroligomer 1 and Nutlin-3 in media at 2, 5, 10 and 20 µM for 17 hours at 37°C. […] Huh7 cells were then incubated with 1 at 15 µM and cells were harvested at 2, 4, 6, 8, 12 and 24 hours. […]
Cell Culture and Treatment. HepG2 (expressing wild-type p53) and Huh7 (expressing mutant p53) cell lines were purchased from the American Type Culture Collection (ATCC) and cultured as monolayers in Dulbecco’s modified Eagle’s medium (DMEM) (Invitrogen) supplemented with 100 mM nonessential amino acid solution, 100 mM sodium pyruvate, 100 U/mL penicillin, 100 μg/mL streptomycin, and 10% heat inactivated fetal bovine serum (FBS) (all from Hyclone).
Cells were maintained at 37° C and 5% CO2 and were treated with media that contained 0.5%
FBS. Nutlin-3 (Sigma) was dissolved in 0.01% DMSO (Sigma).
Both nutlin-3 and spiroligomers were added into the medium for final concentrations of 2 µM, 5 µM, 10 µM and 20 µM for 24 hours. For the western blot experiments detailed below, the time length for incubation with bis-peptide was 17 hours. […]
Western Blotting. For protein extraction, cells were lysed in cell lysis buffer (Cell Signaling) with a protease inhibitor cocktail for 20 minutes on ice. Protein extracts (50 μg) were separated by SDS-PAGE electrophoresis, transferred to nitrocellulose membranes (Schleicher & Schuell), and incubated overnight with primary antibodies to p53, HDM2, p21, and β-actin (all from Santa Cruz Biotechnology). The blots were developed using ECL plus detection system (Amersham Biosciences) and exposed to Kodak imaging films (Kodak BioMax). Images were quantified using ImageJ software (NIH).
Figure S.5. Detection of bis-peptide 1 and Nutlin-3 in HepG2 (left) and Huh7 (right) cells. The concentration of each compound is given in μM and the three proteins (HDM2, p53 and p21) bands are […]

[2] = system: mRNA for HDM2 in Huh7 cells; test: quantitative real-time PCR and end-point PCR of HDM2; assay type: cell-based, human; settings: β-actin as loading control
Procedure: Huh7 cells were incubated with spiroligomer 1 and Nutlin-3 in media at 2, 5, 10 and 20 µM for 17 hours at 37°C. […] Huh7 cells were then incubated with 1 at 15 µM and cells were harvested at 2, 4, 6, 8, 12 and 24 hours. […] Our hypothesis is that compound 1 stabilizes HDM2 to proteolysis. Studies are underway to determine the mechanism of HDM2 stabilization by compound 1.
RNA Extraction, Reverse Transcription and PCR Analysis. Total RNA was extracted using High Pure RNA Isolation Kit (Roche Applied Science) according to enclosed instructions. cDNA was prepared using RETROscript Reverse Transcription Kit (Ambion). HDM2 primers (Ensembl […]
(forward) and 5'-[…]-3' (reverse). These primers recognize cDNAs of all HDM2 isoforms with p53 binding sequence7 and generate 102 bp amplicon. β-actin primers for 243 bp PCR transcript (Ensemble gene: Actb, ENSRNOG00000034254) were 5’- […]
[…]-3’ (forward) and 5’-[…]-3’ (reverse).
Primers were designed using Primer3Plus Web Interface. cDNA was amplified using FastStart SYBR Green Master Kit (Roche Applied Science). Real-time quantitative PCR was performed using Stratagene Mx 3005P QPCR system. PCR samples were amplified in 40 cycles; each cycle consisted of 60 sec of denaturation at 95 °C, 60 sec of annealing at 60 °C, and 60 sec of elongation at 72 °C. […]
Figure S.7. Real-time quantitative PCR (A.) and end-point PCR (B.) analysis of HDM2 in Huh7 cells […]

[3] = Huh7, 2, 5, 10 and 20 µM, 17 hours, 37°C

SMILES: CC(C)CN1C(=O)[C@@H]2C[C@@]3(CN2C(=O)[C@@]12C[C@H]1C(=O)N(Cc4ccc(Cl)c(Cl)c4)[C@]4(C[C@@H]5C(=O)N[C@@H](CCc6ccccc6)C(=O)N5C4)C(=O)N1C2)NC(=O)[C@@H](CCCCNC(=S)Nc1ccc2c(c1)C(=O)OC21c2ccc(O)cc2Oc2cc(O)ccc21)NC3=O [Compound 1]
- p53Y220C levels with time ([1]; Huh7, 15 µM, harvested at 2, 4, 6, 8, 12 and 24 hours): no change in p53Y220C levels with time; also recorded: no effect on p53Y220C levels
- p21 levels [1, 3]: did not change
- p53Y220C levels [1, 3]: did not change
- HDM2 levels relative to control cells ([1]; Huh7, 2, 5, 10 and 20 µM, 17 hours, 37°C, dose-dependent): more than 30 fold
- level of mRNA for HDM2 [2]: no effect; also recorded: no difference in HDM2 expression levels
